Source: patent US20070254843A1, “Methods for treating bone associated diseases by the use of methionine aminopeptidase-2 inhibitors” (Praecis Pharmaceuticals Incorporated, priority 2006, published 2007)

Legend:
[1] = test system: primary human OC cultured on human bone particles; test: Bone resorption in vitro, CTX-I ELISA of culture supernatant; format: cell-based
Procedure: (§1) ELISAs for cartilage and bone biochemical turnover markers. The amount of COMP in serum was measured with a competitive enzyme immunoassay (MD Biosciences, Inc) according to the manufacturer's instructions. The detection limit of this ELISA was 0.2 U/L. Helical peptide (amino acids 620 to 633) from the α1 chain of bone-specific human CTX-I was measured either in cell culture supernatants of primary human OC precursors cultured as described above, or in urine with a competitive enzyme immunoassay (Quidel Corporation). The detection limit of this ELISA was 8 μg/L. All CTX-I measurements in urine were corrected for urinary creatinine excretion for each sample to account for potential differences in renal clearance rates among the different study groups. Urinary creatinine was measured with a colorimetric assay (Quidel Corporation).
To determine whether the inhibition of OC differentiation by the MetAP-2 inhibitor in vitro correlated with the inhibition of bone resorption in vitro, primary human OC were cultured on a thin layer of human bone particles in the presence of M-CSF and RANKL, and vehicle or increasing concentrations of the MetAP-2 inhibitor. […] After 7 days, the culture supernatant was collected and the amount of bone-specific collagen type I C-terminal helical peptide (CTX-I) was measured by ELISA.

PG-PS-induced arthritis [2] = test: Microfocal computed tomography of hind joints in rat PG-PS arthritis model; format: in vivo
Procedure: Microfocal computed tomography. All specimens were scanned on a Scanco Medical AG μCT 40 system. Images were obtained with an isotropic voxel resolution of 20 microns. A matrix size of 1024×1024 with 1000 projections was utilized for all scans. A total of 1836 slices were scanned for each specimen (the number of slices scanned was determined by the length of the scan needed to cover the entire ankle including the distal tibia). The scan time per specimen was approximately 2.6 hours. The images were then volume rendered using a fixed threshold (at two different thresholds: 255 and 140). The total bone volume and BMD were calculated over the same regions of all the specimens. Micro-CT was performed at Scanco USA, Incorporated.
Finally, the activity of the MetAP-2 inhibitor on the structural preservation of hind joints in rats with established disease was investigated.
The ankles including the distal tibia were scanned using a Scanco Medical AG μCT 40 system (threshold: 255), and the total bone volume and BMD were calculated over the same regions of all specimens.

COMP = test: Serum COMP ELISA in rat PG-PS arthritis model; format: in vivo; settings: 1, 5 and 10 mg/kg p.o. qod, after conclusion of the study
Procedure: as §1
The destruction of articular joints is the radiographic hallmark of bone associated disease. Therefore, the activity of the MetAP-2 inhibitor on these destructive processes was assessed by measuring biochemical turnover markers of cartilage erosion and bone resorption. […] The amount of COMP in serum of animals treated therapeutically with the MetAP-2 inhibitor (1, 5, and 10 mg/kg, p.o., qod), or vehicle was measured after conclusion of the study.

PG-PS-induced arthritis [3] = test: Clinical (histopathological) assessment of PG-PS arthritis, joint histology score; format: in vivo, rat; settings: for Total arthritis score / Bone Resorption score / Cartilage erosion score / Cell infiltration score / Pannus formation score: PG-PS arthritis; for Bone Resorption score / Cartilage erosion score / Cell infiltration score / Pannus formation score: score 0-4
Procedure: Clinical assessment of PG-PS arthritis. The histopathological evaluation was performed on the left and right hind joints of randomly selected animals from each study group by an independent histopathologist without knowledge of specific interventions. After completion of the study, the left and right hind ankles were removed, fixed in 10% buffered formalin, decalcified in 5% formic acid, paraffin-embedded, sectioned, and H&E stained for histological evaluation. A joint histology scoring system which grades the severity of 4 histopathological processes (cell infiltration, pannus formation, cartilage erosion, bone resorption), was used to quantify hind joint involvement in the PG-PS arthritis model (36). Dependent on the assigned score for each parameter (0=normal, 1=minimal, 2=mild, 3=moderate, 4=marked), the maximum total score per ankle is 16, and 32 per animal.
It was investigated whether the protective activity of the MetAP-2 inhibitor in this animal model of arthritis, which is characterized by aggressive synovitis, extensive pannus formation, cartilage degradation and focal bone erosion, was mediated through regression in the severity of all clinical indices tested, or whether this activity was targeting specific pathogenic processes.
A joint histology scoring system which grades the severity of 4 histopathological processes (cell infiltration, pannus formation, cartilage erosion, bone resorption) was used (O'Byrne (1991) Agents and Actions 134:239-241).

[4] = test system: primary human OC precursors; test: Cytotoxicity in OC precursor culture; format: cell-based; settings: concentrations up to 100 nM
Procedure: (§2) The instant invention features such an inhibitor. In order to investigate the activity of the MetAP-2 inhibitor on osteoclast (OC) differentiation and bone resorption in vitro, yet another cell type critically associated with R^A pathogenesis in an in vitro osteoclastogenesis model was utilized. Primary human OC precursors were cultured for 7 days in the presence of M-CSF and RANKL, and vehicle or increasing concentrations of the MetAP-2 inhibitor.

HFLS-R^A [5] = settings: in vitro; cited from earlier work
[6] = test system: primary human osteoclast (OC) precursors; test: Osteoclast differentiation assay (TRAP staining); format: cell-based
Procedure: Osteoclast differentiation assays. Primary human osteoclast (OC) precursors (Cambrex) were seeded at 10,000 cells/well (50,000 cells/ml) in osteoclast precursor growth medium (Cambrex). The cells were cultured for 7 days in the presence of either M-CSF (33 ng/ml), M-CSF (33 ng/ml) and RANKL (33 ng/ml), or in the presence of both cytokines and different concentrations of the MetAP-2 inhibitor. OC differentiation was determined by staining for the OC marker TRAP, using a leukocyte acid phosphatase kit (Sigma). Briefly, after 7 days in culture, the cells were rinsed once with PBS, fixed with 37% formaldehyde in acetone-citrate buffer for 1 min, and stained for development of red color according to the manufacturer's instructions.
as §2

HFLS-R^A [7] = settings: 100 nM; cited from earlier work
[8] = PG-PS arthritis, 10 mg/kg, threshold 255

With CO[C@@H]1[C@H](OC(=O)N[C@@H](C(N)=O)C(C)C)CC[C@]2(CO2)[C@H]1[C@@]1(C)O[C@@H]1CC=C(C)C [MetAP-2 inhibitor, (1-Carbamoyl-2-methyl-propyl)-carbamic acid-(3R,4S,5S,6R)-5-methoxy-4-[(2R,3R)-2-methyl-3-(3-methyl-but-2-enyl)-oxiranyl]-1-oxa-spiro[2,5]oct-6-yl ester] the IC50 ([1]; 168 h, 7 days, M-CSF and RANKL, human bone particles, read-out: IC50, bone resorbing activity of OC (CTX-I)) was no more than 0.1 nM, the “degree of inhibition of bone resorption” value ([1]; at 1 nM and 10 nM, versus E-64 at 100 nM) was “comparable to the inhibitory activity of E-64 at 100 nM” and the “structural integrity of hind joints, three-dimensional micro-CT images” value (PG-PS-induced arthritis [2]; 10 mg/kg p.o. qod, versus vehicle) was “protected the structural integrity of the joints and prevented focal bone erosions”. For the same molecule, the BMD (PG-PS-induced arthritis [2]; [8]) was 1087 ± 17.44 mg HA/ccm, the “Bone Volume (Vox-BV)” value (PG-PS-induced arthritis [2]; [8]) was 213.8 ± 5.23 and the “systemic level of COMP in serum” value (COMP) was “significant decrease”. The “total arthritic score versus vehicle” value (PG-PS-induced arthritis [3]; 1, 5, 10 mg/kg p.o. qod) was “significantly decreased”, the Total arthritis score (PG-PS-induced arthritis [3]; 1 mg/kg) was 7.00 ± 0.58^B and the “Bone Resorption score” value (PG-PS-induced arthritis [3]; 1 mg/kg) was 2.05 ± 0.2. The Cartilage erosion score (PG-PS-induced arthritis [3]; 1 mg/kg) was 1.10 ± 0.12^B, the Cell infiltration score (PG-PS-induced arthritis [3]; 1 mg/kg) was 1.85 ± 0.15^A and the Pannus formation score (PG-PS-induced arthritis [3]; 1 mg/kg) was 2.00 ± 0.14^A. The Total arthritis score (PG-PS-induced arthritis [3]; 5 mg/kg) was 7.60 ± 0.67^B, the “Bone Resorption score” value (PG-PS-induced arthritis [3]; 5 mg/kg) was 1.80 ± 0.20^B and the Cartilage erosion score (PG-PS-induced arthritis [3]; 5 mg/kg) was 1.25 ± 0.18^B. The Cell infiltration score (PG-PS-induced arthritis [3]; 5 mg/kg) was 2.15 ± 0.18^A, the Pannus formation score (PG-PS-induced arthritis [3]; 5 mg/kg) was 2.40 ± 0.20^A and the Total arthritis score (PG-PS-induced arthritis [3]; 10 mg/kg) was 5.83 ± 0.71^B. The “Bone Resorption score” value (PG-PS-induced arthritis [3]; 10 mg/kg) was 2.00 ± 0.16^B, the Cartilage erosion score (PG-PS-induced arthritis [3]; 10 mg/kg) was 0.72 ± 0.14^B and the Cell infiltration score (PG-PS-induced arthritis [3]; 10 mg/kg) was 1.38 ± 0.31^A. For the same molecule, the Pannus formation score (PG-PS-induced arthritis [3]; 10 mg/kg) was 1.72 ± 0.20^A, the cytotoxicity [4] was “did not induce cytotoxicity” and the “inhibition of proliferation of HFLS-RA” value (HFLS-R^A [5]) was “potently inhibit”. The “reversibility of the inhibition of OC differentiation” value [6] was “fully reversible”, the “inhibition of OC differentiation” value ([6]; concentration ≦0.1 nM) was “no detectable inhibition” and the “generation of TRAP-positive mononuclear and multinucleated OC” value ([6]; concentrations at ≦1 nM, 7 days with M-CSF and RANKL) was “almost completely inhibited”. The “induction of apoptosis in HFLS-RA” value (HFLS-R^A [7]) was “did not induce apoptosis”.
